# Reference: patent US20230355646A1, “AUTOPHAGY ACTIVATOR” (Resonac Corporation, priority 2020, published 2023)
# What was measured:
# ATG5 gene = ATG5 gene expression promoting effect in human neuroblastoma SH-SY5Y in the presence of amyloid β; format: cell-based
# Method: (§1) In the presence of an autophagy activator, the expression levels of the LC3 gene, ATG5 gene, and ATG7 gene in human neuroblastoma (SH-SY5Y; obtained from ATCC) were measured by the following test method, and the effect of promoting the expression of the LC3 gene, ATG5 gene, and ATG7 gene by an autophagy activator was evaluated.
# (§2) In the following examples and comparative examples, tests were performed by adding amyloid β, which is known to cause a decrease in autophagy in nerve cells, to each medium.
# (§3) SH-SY5Y cells were prepared at a seeding density of 10000 cells/cm^2 and cultured for 24 hours in D-MEM medium/Ham's F-12 medium (manufactured by Sigma-Aldrich) to which 10% fetal bovine serum (manufactured by MP Biomedicals) was added. Next, in Example 15, the methyl hesperidin DMSO solution was added to the medium such that the final concentration of methyl hesperidin was 10^−3% (V/V) and the final concentration of DMSO was 0.1% (V/V). […]
# (§4) Then, using Nucleospin (registered trademark) RNA kit (manufactured by Takara Bio Inc.), RNA was extracted from SH-SY5Y cells in each example, and cDNA was synthesized from the obtained RNA. Next, using this cDNA as a template, by quantitative real-time PCR, the expression level of each gene was quantified using primers (manufactured by Takara Bio Inc.) specific to the LC3 gene, ATG5 gene, and ATG7 gene, respectively. […]
# ATG7 gene = ATG7 gene expression promoting effect in human neuroblastoma SH-SY5Y in the presence of amyloid β; format: cell-based
# Method: as §1, §2, §3, §4
# [1] = SH-SY5Y cells with amyloid β, compared to DMSO and amyloid β of Comparative Example 5
# [2] = SH-SY5Y cells, 20 μM amyloid β present, 10^−2% (V/V) methyl hesperidin or hesperidin, additional ingredient where in the example, 48 hours, Reference Example 3 = 1.00
compound,measurement,setting,value
"COc1ccc([C@@H]2CC(=O)c3c(O)cc(O[C@@H]4O[C@H](CO[C@@H]5O[C@@H](C)[C@H](O)[C@@H](O)[C@H]5O)[C@@H](O)[C@H](O)[C@H]4O)cc3O2)cc1O [Comparative Example 2, hesperidin]",expression level of the ATG5 gene (in words),ATG5 gene; [1],increased
same,Relative gene expression level ATG5,ATG5 gene; [2],3.29
same,expression level of the ATG7 gene (in words),ATG7 gene; [1],increased
same,Relative gene expression level ATG7,ATG7 gene; [2],2.31
